# Tests used:
# HIV-1 protease = HIV-1 protease (Human immunodeficiency virus type 1 group M subtype B, UniProt P04585); type: cell-based; conditions: antiviral studies
# PI-resistant strains = experiment: cross-resistance studies against 63 PI-resistant strains; type: cell-based, HIV; conditions: compared with approved protease inhibitors
# laboratory-adapted virus = experiment: 48-week resistance selection study and site-directed mutagenesis in vitro; type: cell-based, HIV
# Description: A 48-week resistance selection study was performed by increasing the concentrations of TMB-607 against a laboratory-adapted virus in vitro.
# solubility = type: physicochemical
# HIV = conditions: cited from earlier work
compound,measurement,setting,value
COC(=O)NC(C(=O)NCCCCC(CO)N(CC(C)C)S(=O)(=O)c1ccc(N)cc1)C(c1ccccc1)c1ccccc1 (stereo not drawn) [TMB-607],inhibiting the HIV-1 protease,HIV-1 protease,effective and selective
same,levels of reduced susceptibility,PI-resistant strains,lower levels of reduced susceptibility than any of approved Protease inhibitors (PIs)
same,mutations selected in the protease open reading frame,"laboratory-adapted virus; 48 weeks, increasing concentrations of TMB-607, laboratory-adapted virus in vitro",Four mutations in the protease open reading frame were selected
same,resistance conferred by single mutations,"laboratory-adapted virus; site-directed mutagenesis, in vitro",single mutations did not result in significant resistance
same,solubility,solubility,poor
same,protein binding-adjusted antiviral activity EC50,HIV,0.023 µg/mL

# From patent US10369129B2, “Long acting pharmaceutical composition of protease inhibitor” (TaiMed Biologics, Inc., priority 2016, dated 2019)
